For orientation: Km means the substrate concentration at which the rate is half of its maximum.

The values that follow come from paper PMC7224213, “A novel peroxidase from Ziziphus jujuba fruit: purification, thermodynamics and biochemical characterization properties” (Scientific Reports, 2020).

This assay deals with T1, Z. jujuba peroxidase (POD IIA).
T1 construct: 56 kDa by gel filtration and SDS-PAGE (single band); EC 1.11.1.7
Kind of assay: absorbance at […] nm, Lineweaver-Burk. Format: biochemical, Ziziphus jujuba. The following applies: co-substrate H2O2; 0.05 M sodium acetate pH 5.5; 50 °C; guaiacol 20-90 mM; text prints 23.5 with the units of Km and Vmax interchanged (unit/ml).

For `COc1ccccc1O` [guaiacol], the Km worked out at 23.5 mM.
